Laboratory results published in patent publication US20250099952A1, “MICROFLUIDIC DEVICE AND USES THEREOF” (CASE WESTERN RESERVE UNIVERSITY, priority 2019, published 2025).

Tests used:
RBCs from healthy donors = assay: Occlusion Chip microfluidic assessment of RBC deformability (RBC Occlusion Index) after chemical treatment; format: cell-based, human; details: for RBC Occlusion Index (ROI), mean±SEM: directly suspended in PBS, N=4
Method: Whole blood samples were centrifuged at 500×g for 5 min at 4° C., plasma was removed, and the RBCs were washed twice in PBS, and re-suspended at a 20% hematocrit value. The Occlusion Chip was placed on an Olympus IX83 inverted motorized microscope stage for high-resolution imaging. The RBC samples were perfused through the microchannel under constant pressure for 20 min (FIGS. 12A & B). Non-retained RBCs were rinsed away by injecting PBS into the microchannel under the same pressure. […] Phase contrast, bright field, and fluorescent images were recorded at 20× using the Olympus Cell Sense live imaging software (excitation/emission wavelength, 488/505-580 for Green Fluorescent Protein, GFP). Post processing of recorded images and cell counting were performed using Adobe Photoshop (San Jose, CA). Oxygen tension was controlled in hypoxia experiments using a custom designed gas exchange setup as described in Supplementary Materials. Scanning electron microscopy was performed on the micropillars and RBCs.
Glutaraldehyde, a non-specific protein cross-linker, and diamide, a thiol group oxidant inducing disulfide cross-linking of band 3, are used to stiffen RBCs in order to mimic impaired RBC deformability, seen in pathological conditions. Precisely controlled exposure of RBC to graded concentrations of glutaraldehyde or diamide was utilized to verify Occlusion Chip functionality. RBCs from healthy donors exposed to graded concentrations, 0.00% (as control), 0.02%, 0.04%, and 0.08% (w/v), of glutaraldehyde were mixed with untreated normal RBCs to achieve 1% treated cells and were suspended in PBS for microfluidic assessment. RBCs exposed to same graded concentrations of diamide were directly suspended in PBS for microfluidic assessment. […] The retained RBCs were fluorescently labeled with anti-glycophorin A (CD235a, Abcam, Cambridge, MA) antibodies. […] At the end of the test, numbers of occlusions induced by poorly-deformable RBCs within each micropillar array were quantified (FIGS. 7D&E). […] To assess the overall RBC deformability of specific samples, we assigned different weight to the occlusion events quantitated within different micropillar arrays, and defined a new parameter ‘RBC Occlusion Index’ (ROI) using the following equation,
Mercury is a toxic heavy metal that binds to RBC membranes with high affinity and results in RBC hemolysis. Mercuric ions induce membrane conformational changes and impair RBC deformability.

[1] = system: RBCs in whole venous blood; assay: Fibrinogen-accelerated RBC sedimentation in whole blood; format: cell-based, human; details: fibrinogen stock 40 mg/ml mixed with whole blood 1:9 to 1:1 (v/v), monitored over 20 min, compared to PBS
Method: The experiments are performed immediately after blood draw through […]. We examine the effect of additional fibrinogen on RBC sedimentation, which has been reported to have a marked correlation between the concentration of and the erythrocyte sedimentation rate.
Whole venous blood was drawn with anticoagulated EDTA into a 1.5 ml microcentrifuge tube. Fibrinogen stock solution with the concentration of 40 mg/ml (in PBS) was mixed with whole blood at ratios of 1:9, 1:4, 1:2, and 1:1 (v/v) and the final volume of the mixtures was adjusted to 500 μl. Control groups were mixtures of whole blood and PBS at the same volume ratios. The sedimentation of RBCs was monitored over a period of 20 minutes. […] In addition, fibrinogen mediated RBC sedimentation became stable when it approached 20 min, and no more noticeable difference was observed between blood samples with different concentrations of fibrinogen. Therefore, the 1:9 fibrinogen and whole blood mixture (4 mg/ml final fibrinogen concentration) was selected based on a cost-effective point of view, from which 150 μl plasma was collected for further processing.

mercuric ion
effect on RBC deformability (RBCs from healthy donors): moderately reduces RBC deformability

CN(C)C(=O)/N=N/C(=O)N(C)C [diamide]
RBC Occlusion Index (ROI), mean±SEM (RBCs from healthy donors; RBCs exposed to 0.02% diamide): 329.9±37.2 | RBC Occlusion Index (ROI), mean±SEM (RBCs from healthy donors; RBCs exposed to 0.04% diamide): 459.8±71.6 | RBC Occlusion Index (ROI), mean±SEM (RBCs from healthy donors; RBCs exposed to 0.08% diamide): 645.1±87.6 | effect on RBC stiffness and membrane morphology (RBCs from healthy donors; diamide exposure, micropillar device 20 μm to 4 μm): induce structural stiffening of RBCs without interrupting the cell membrane morphology

O=CCCCC=O [glutaraldehyde]
increase in total occlusion level compared to the control (RBCs from healthy donors; 0.08% (w/v) glutaraldehyde): more than 16 fold

fibrinogen
RBC sedimentation (visual, words) [1]: significantly accelerated the sedimentation of RBCs compared to PBS
